# Key:
# [1] = system: T-Rex 293 cell line SC3 cells having increased expression of androgen receptor protein due to exposure to doxycycline; experiment: Cellular growth inhibition, T-Rex 293 SC3 cells with doxycycline (increased androgen receptor expression), CellTiter-Glo; type: cell-based; settings: T-Rex 293 SC3 cells with 10 ng/mL doxycycline (increased androgen receptor expression), 72 hours, CellTiter-Glo 2.0
# Outline: (§1)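 Doxycycline (10 ng/mL) was either included or omitted to toggle wild-type androgen receptor expression in SC3 cells, a T-Rex 293 clone, grown in stripped-serum, phenol red-free medium. After 72 hours with compound, viable cells were quantified by CellTiter-Glo 2.0.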
# [2] = system: T-Rex 293 cell line SC3 cells lacking increased expression of androgen receptor protein; experiment: Cellular growth inhibition, T-Rex 293 SC3 cells without doxycycline (no increased androgen receptor expression), CellTiter-Glo; type: cell-based; settings: T-Rex 293 SC3 cells not exposed to doxycycline (no increased androgen receptor expression), 72 hours
# Outline: as §1
# VCaP cells = experiment: Cellular growth inhibition assay for VCaP cells, CellTiter-Glo; type: cell-based, human; settings: 72 hours
# Outline: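 GI50 values come from four-parameter curve fits of luminescence data normalized to a zero baseline. Compound, in medium with 0.5% DMSO, was added one day after plating and left for 72 h before CellTiter-Glo 2.0 addition.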
# T47D cells = experiment: Cellular Growth Inhibition Assay for T47D Cells (CellTiter-Glo); type: cell-based, human; settings: 72 hours
# Outline: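 GI50 values derive from four-parameter regression of CellTiter-Glo 2.0 luminescence, using zero luminescence as baseline. Human breast cancer T47D cells (3000/well; DMEM, 10% FBS, 0.2 units/mL insulin) were exposed for 72 h to compound dilutions at 0.5% DMSO, with dosing starting 24 h after seeding.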
Compound,GI50 (VCaP cells) [nM],GI50 (T47D cells) [nM],GI50 (VCaP cells; Homo sapiens) [nM],GI50 (T47D cells; Homo sapiens) [nM],GI50 [1] [nM],GI50 [2] [nM]
Cn1cc(-c2cc(C(C)(C)O)ccc2Oc2ccc(CCC3CCN(c4ncc(C(=O)N[C@H]5C(C)(C)[C@H](Oc6ccc(C#N)c(Cl)c6)C5(C)C)cn4)CC3)nc2)c2cc[nH]c2c1=O [Compound I-302],< 500,500 to 1500,,,< 500,500 to 1500
"CC(C)c1ccc(Oc2cccc(N3CC(N4CCN(c5ncc(C(=O)N[C@H]6C(C)(C)[C@H](Oc7ccc(C#N)c(Cl)c7)C6(C)C)cn5)CC4)C3)c2)c(-c2cn(C)c(=O)c3[nH]ccc23)c1 [Compound I-122, N-[3-(3-chloro-4-cyano-phenoxy)-2,2,4,4-tetramethyl-cyclobutyl]-2-[4-[1-[3-[4-isopropyl-2-(6-methyl-7-oxo-1H-pyrrolo[2,3-c]pyridin-4-yl)phenoxy]phenyl]azetidin-3-yl]piperazin-1-yl]pyrimidine-5-carboxamide]",,,> 3000,500 to 1500,< 500,> 3000
CCS(=O)(=O)Cc1ccc(Oc2cccc(OCCCC3CCN(c4ncc(C(=O)N[C@H]5C(C)(C)[C@H](Oc6ccc(C#N)c(Cl)c6)C5(C)C)cn4)CC3)c2)c(-c2cn(C)c(=O)c3[nH]ccc23)c1 [Compound I-257],,,< 500,< 500,< 500,< 500
CCS(=O)(=O)Nc1ccc(Oc2cccc(N3CC(OC4CCN(c5ncc(C(=O)N[C@H]6C(C)(C)[C@H](Oc7ccc(C#N)c(Cl)c7)C6(C)C)cn5)CC4)C3)c2)c(-c2cn(C)c(=O)c3[nH]ccc23)c1 [Compound I-181],< 500,< 500,,,< 500,> 3000
CN(C1CCN(c2ncc(C(=O)N[C@H]3C(C)(C)[C@H](Oc4ccc(C#N)c(Cl)c4)C3(C)C)cn2)CC1)C1CN(c2cccc(Oc3ccc(C(C)(C)O)cc3-c3cn(C)c(=O)c4[nH]ccc34)c2F)C1 [Compound I-230],< 500,< 500,,,< 500,500 to 1500
CCS(=O)(=O)c1ccc(OC(CCCCOC2CCN(c3ncc(C(=O)N[C@H]4C(C)(C)[C@H](Oc5ccc(C#N)c(Cl)c5)C4(C)C)cn3)CC2)C2CC2)c(-c2cn(C)c(=O)c3[nH]ccc23)c1 (stereo partly shown) [Compound I-234],< 500,< 500,,,< 500,< 500
"Cn1cc(-c2cc(C(C)(C)O)ccc2Oc2ccc(OC3CCN(c4ncc(C(=O)N[C@H]5C(C)(C)[C@H](Oc6ccc(C#N)c(Cl)c6)C5(C)C)cn4)CC3)nc2)c2cc[nH]c2c1=O [Compound I-297, N-[3-(3-chloro-4-cyano-phenoxy)-2,2,4,4-tetramethyl-cyclobutyl]-2-[4-[[5-[4-(1-hydroxy-1-methyl-ethyl)-2-(6-methyl-7-oxo-1H-pyrrolo[2,3-c]pyridin-4-yl)phenoxy]-2-pyridyl]oxy]-1-piperidyl]pyrimidine-5-carboxamide]",,,< 500,< 500,< 500,< 500
Cn1cc(-c2cc(C(C)(C)O)ccc2Oc2ccc(CCC3C4CN(c5ncc(C(=O)N[C@H]6C(C)(C)[C@H](Oc7ccc(C#N)c(Cl)c7)C6(C)C)cn5)CC34)cc2)c2cc[nH]c2c1=O (stereo partly shown) [Compound I-286],< 500,< 500,,,< 500,500 to 1500
CCS(=O)(=O)c1ccc(Oc2ccc(CCCC3CCN(c4ncc(C(=O)N[C@H]5C(C)(C)[C@H](Oc6ccc(C#N)c(Cl)c6)C5(C)C)cn4)CC3)c(F)c2)c(-c2cn(C)c(=O)c3[nH]ccc23)c1 [Compound I-285],,,< 500,< 500,< 500,> 3000
CCS(=O)(=O)c1ccc(Oc2ccc(CC3CCN(c4ncc(C(=O)N[C@H]5C(C)(C)[C@H](Oc6ccc(C#N)c(Cl)c6)C5(C)C)cn4)CC3)c(F)c2)c(-c2cn(C)c(=O)c3[nH]ccc23)c1 [Compound I-278],,,< 500,< 500,< 500,> 3000

# The next lines start with results.
GI50 (VCaP cells) [nM],GI50 (T47D cells) [nM],GI50 (VCaP cells; Homo sapiens) [nM],GI50 (T47D cells; Homo sapiens) [nM],Compound,GI50 [1] [nM],GI50 [2] [nM]
> 3000,< 500,,,Cn1cc(-c2cc(C(C)(C)O)ccc2Oc2cccc(N3CCC(CC4CCN(c5ncc(C(=O)N[C@H]6C(C)(C)[C@H](Oc7ccc(C#N)c(Cl)c7)C6(C)C)cn5)CC4)CC3)c2)c2cc[nH]c2c1=O [Compound I-325],< 500,> 3000
,,< 500,> 3000,"Cn1cc(-c2cc3c(cc2Oc2ccc(N4CC(CC5CN(c6ncc(C(=O)N[C@H]7C(C)(C)[C@H](Oc8ccc(C#N)c(Cl)c8)C7(C)C)cn6)C5)C4)cc2)CCC3(C)O)c2cc[nH]c2c1=O (stereo partly shown) [Compound I-329, N-[3-(3-chloro-4-cyano-phenoxy)-2,2,4,4-tetramethyl-cyclobutyl]-2-[3-[[1-[4-[1-hydroxy-1-methyl-6-(6-methyl-7-oxo-1H-pyrrolo[2,3-c]pyridin-4-yl)indan-5-yl]oxyphenyl]azetidin-3-yl]methyl]azetidin-1-yl]pyrimidine-5-carboxamide]",< 500,> 3000
,,< 500,500 to 1500,Cn1cc(-c2cc(C(C)(C)O)ccc2Oc2ccc(N3CC(CC4CN(c5ccc(C(=O)N[C@H]6C(C)(C)[C@H](Oc7ccc(C#N)c(Cl)c7)C6(C)C)cn5)C4)C3)cc2)c2cc[nH]c2c1=O [Compound I-316],< 500,< 500
,,< 500,500 to 1500,Cn1cc(-c2cc(C(C)(C)O)ccc2Oc2ccc(CCOC3CCN(c4ncc(C(=O)N[C@H]5C(C)(C)[C@H](Oc6ccc(C#N)c(Cl)c6)C5(C)C)cn4)CC3)cn2)c2cc[nH]c2c1=O [Compound I-315],< 500,> 3000
< 500,< 500,,,Cn1cc(-c2cc(C(C)(C)O)ccc2Oc2ccc(CCC3CCN(c4cnc(C(=O)N[C@H]5C(C)(C)[C@H](Oc6ccc(C#N)c(Cl)c6)C5(C)C)cn4)CC3)nc2)c2cc[nH]c2c1=O [Compound I-341],< 500,< 500
,,< 500,< 500,Cn1cc(-c2cc(C(C)(C)O)ccc2Oc2ccc(N3CC(CC4CN(c5ccc(C(=O)N[C@H]6C(C)(C)[C@H](Oc7ccc(C#N)c(Cl)c7)C6(C)C)nn5)C4)C3)cc2)c2cc[nH]c2c1=O [Compound I-319],< 500,< 500
,,< 500,< 500,"Cn1cc(-c2cc(C(C)(C)O)ccc2O[C@H]2C[C@H](CC3CCN(c4ncc(C(=O)N[C@H]5C(C)(C)[C@H](Oc6ccc(C#N)c(Cl)c6)C5(C)C)cn4)CC3)C2)c2cc[nH]c2c1=O [Compound I-309, N-[3-(3-chloro-4-cyano-phenoxy)-2,2,4,4-tetramethyl-cyclobutyl]-2-[4-[[3-[4-(1-hydroxy-1-methyl-ethyl)-2-(6-methyl-7-oxo-1H-pyrrolo[2,3-c]pyridin-4-yl)phenoxy]cyclobutyl]methyl]-1-piperidyl]pyrimidine-5-carboxamide]",< 500,500 to 1500
< 500,< 500,,,"Cn1cc(-c2cc(C(C)(C)O)ccc2Oc2ccc(CC3CC(C4CCCN(c5ncc(C(=O)N[C@H]6C(C)(C)[C@H](Oc7ccc(C#N)c(Cl)c7)C6(C)C)cn5)C4)C3)cc2)c2cc[nH]c2c1=O (single isomer, unassigned) [Compound I-348]",< 500,> 3000
< 500,< 500,,,Cn1cc(-c2cc(C(C)(C)O)ccc2Oc2ccc(N3CC4(CCCN(c5ncc(C(=O)N[C@H]6C(C)(C)[C@H](Oc7ccc(C#N)c(Cl)c7)C6(C)C)cn5)C4)C3)cc2)c2cc[nH]c2c1=O [Compound I-343],< 500,> 3000

# Source: patent publication US20250388605A1, “HETEROBIFUNCTIONAL COMPOUNDS AND METHODS OF TREATING DISEASE” (Halda Therapeutics OpCo, Inc., priority 2022, published 2025)
